Results on 2 molecules are retold here after patent US20120064072A1, “Combination Cancer Therapy Comprising Administration of an EGFR Inhibitor and an IGF-1R Inhibitor” (priority 2009, published 2012).

The test system of assay [1] is H292 (NSCLC) human tumor xenograft. Put plainly: Treatment beyond progression (TBP), H292 xenograft model. The format is in vivo, mice.
Protocol: Anti-tumor efficacy was evaluated using mouse xenograft tumor models derived from GEO and H292 cells. Female athymic nude nu/nu CD-1 mice (6-8 wks, 22-29 g) were obtained from Charles River Laboratories (Wilmington, Mass.). Animals were allowed to acclimate for a minimum of one week prior to initiation of a study. Throughout the studies, animals were allowed sterile rodent chow and water ad libitum, and immunocompromised animals were maintained under specific pathogen free conditions. […] Tumor cells were harvested from cell culture flasks during exponential cell growth, washed twice with sterile PBS, counted and resuspended in PBS to a suitable concentration before s.c. implantation on the right flank of female nu/nu CD-1 mice. Tumors were established to 200+/−50 mm^3 in size before randomization into treatment groups of 8 mice each. Body weights were determined twice weekly along with tumor volume {V=[length×(width)^2]/2} measurements using Vernier calipers during the study. Tumor growth inhibition (% TGI) was determined by the following formula: % TGI={1−[(Tt/T0)/(Ct/C0)]/1-[C0/Ct]}×100. Tt is tumor volume of treated at time t; T0 is tumor volume of treated at time 0; Ct is tumor volume of control at time t; and C0 is tumor volume of control at time 0. […] Furthermore, we evaluated the effect of drug treatment on tumor growth delay (GD or T-C value), defined as the difference in time (days) required for the treated tumors (T) to reach 400% of the initial tumor volume compared with those of the control group (C). […] At the time of tumor progression on single agent erlotinib treatment mice were randomized into additional study groups of 8 mice each. Individual tumor volumes were calculated, as stated above, for all mice throughout the study and the time in days until each mouse doubled its tumor volume from the time of re-randomization was determined by linear regression analysis of the entire data set. Statistical evaluation of the data was determined by Kaplan-Meier Survival analysis.
In two separate experiments (FIGS. 9-11 and FIGS. 13-15), NCI-H292 cells were harvested from cell culture flasks during exponential cell growth, washed twice with sterile PBS, counted and resuspended in PBS to a suitable concentration before s.c. implantation on the right flank of female nu/nu CD-1 mice. Tumors were established to 200+/−50 mm^3 in size before randomization into vehicle control or erlotinib treatment groups.
The subject of assay [2] is Erk. Put plainly: GEO model Western blot analysis. As to conditions: erlotinib 100 mg/kg per day eighteen days, FIG. 2. The format is in vivo, human. The method, then:
(§1) In untreated GEO tumors and tumors treated with erlotinib (100 mg/kg per day) for eighteen days, the levels of total and phosphorylated Akt and Erk were measured and quantitated in terms of the ratio of phosphor to total protein in each sample and then plotted as compared to levels observed in vehicle control treated tumors (assumed to be 100%).
(In general: In western blotting, separated proteins are transferred to a membrane and probed.)

Assay [3] has as its system Akt. The assay can be described thus: GEO model Western blot analysis. The format is in vivo, human. The settings on record: erlotinib 100 mg/kg per day eighteen days, FIG. 2. The procedure: as §1
Assay [4] has as its system pIGF-1R. The assay can be described thus: RTK array analysis, H292 model. Type of assay: in vivo, human. The settings on record: H292 tumors, erlotinib 100 mg/kg per day eighteen days, progressor tumors vs untreated or non-progressor; FIG. 5. The procedure:
(§2) In untreated H292 tumors and tumors treated with erlotinib (100 mg/kg per day) for eighteen days, the levels of pIGF-1R and pIR were measured in terms of pixel density normalized to phosphotyrosine loading control, as shown in FIG. 5. Tumors that initially responded and then progressed (progressor) show upregulation of both pIGF-1R and pIR as compared to untreated tumors or tumors that continue to respond to erlotinib treatment (non-progressor).

Assay [5] deals with pIR. The assay can be described thus: RTK array analysis, H292 model. Type of assay: in vivo, human. The settings on record: H292 tumors, erlotinib 100 mg/kg per day eighteen days, progressor tumors vs untreated or non-progressor; FIG. 5. The method, then:
as §2

In assay [6] the test system is Erk. The assay can be described thus: H292 model Western blot analysis. Type of assay: in vivo, human. The settings on record: H292, erlotinib 100 mg/kg per day eighteen days, FIG. 6. The procedure: (§3) In untreated H292 tumors and tumors treated with erlotinib (100 mg/kg per day) for eighteen days, the levels of total and phosphorylated Akt and Erk were measured and quantitated in terms of the ratio of phosphor to total protein in each sample and then plotted as compared to levels observed in vehicle control treated tumors (assumed to be 100%).

In assay [7] the test system is Akt. Put plainly: H292 model Western blot analysis. The format is in vivo, human. As to conditions: H292, erlotinib 100 mg/kg per day eighteen days, FIG. 6. The method, then:
as §3

For assay [8], the system named is GEO (CRC) human tumor xenograft. The assay can be described thus: Treatment beyond progression (TBP), GEO xenograft model. The settings on record: after progression on 18 days erlotinib, erlotinib maintenance 100 mg/kg per day, or with OSI-906 15 mg/kg per day added, FIG. 4. Type of assay: in vivo, mice. The procedure: The H292 (NSCLC) and GEO (CRC) human tumor xenograft models were used to evaluate the efficacy of EGFR inhibitor (erlotinib) maintenance therapy with and without the addition of IGF-1R inhibitor (OSI-906) therapy following response and subsequent progression on erlotinib monotherapy.
Anti-tumor efficacy was evaluated using mouse xenograft tumor models derived from GEO and H292 cells. Female athymic nude nu/nu CD-1 mice (6-8 wks, 22-29 g) were obtained from Charles River Laboratories (Wilmington, Mass.). Animals were allowed to acclimate for a minimum of one week prior to initiation of a study. […] Tumor cells were harvested from cell culture flasks during exponential cell growth, washed twice with sterile PBS, counted and resuspended in PBS to a suitable concentration before s.c. implantation on the right flank of female nu/nu CD-1 mice. […] Body weights were determined twice weekly along with tumor volume {V=[length×(width)^2]/2} measurements using Vernier calipers during the study. Tumor growth inhibition (% TGI) was determined by the following formula: % TGI={1−[(Tt/T0)/(Ct/C0)]/1-[C0/Ct]}×100. […] Furthermore, we evaluated the effect of drug treatment on tumor growth delay (GD or T-C value), defined as the difference in time (days) required for the treated tumors (T) to reach 400% of the initial tumor volume compared with those of the control group (C). […]

The subject of assay [9] is H292 (NSCLC) human tumor xenograft. Put plainly: Frontline combination treatment, H292 xenograft model. Type of assay: in vivo, mice. The settings on record: by 100 days.
Protocol: Anti-tumor efficacy was evaluated using mouse xenograft tumor models derived from GEO and H292 cells. Female athymic nude nu/nu CD-1 mice (6-8 wks, 22-29 g) were obtained from Charles River Laboratories (Wilmington, Mass.). Animals were allowed to acclimate for a minimum of one week prior to initiation of a study. Throughout the studies, animals were allowed sterile rodent chow and water ad libitum, and immunocompromised animals were maintained under specific pathogen free conditions. […] Tumor cells were harvested from cell culture flasks during exponential cell growth, washed twice with sterile PBS, counted and resuspended in PBS to a suitable concentration before s.c. implantation on the right flank of female nu/nu CD-1 mice. […] Body weights were determined twice weekly along with tumor volume {V=[length×(width)^2]/2} measurements using Vernier calipers during the study. Tumor growth inhibition (% TGI) was determined by the following formula: % TGI={1−[(Tt/T0)/(Ct/C0)]/1-[C0/Ct]}×100. […] Furthermore, we evaluated the effect of drug treatment on tumor growth delay (GD or T-C value), defined as the difference in time (days) required for the treated tumors (T) to reach 400% of the initial tumor volume compared with those of the control group (C). […] Statistical evaluation of the data was determined by Kaplan-Meier Survival analysis.
Assay [10] has as its system pIGF-1R. Put plainly: RTK array analysis, GEO model. The settings on record: erlotinib 100 mg/kg per day for eighteen days, all treated tumors, FIG. 1. The format is in vivo, human. The procedure: (§4) In untreated GEO tumors and tumors treated with erlotinib (100 mg/kg per day) for eighteen days, the levels of pEGFR, pIGF-1R, and pIR were measured in terms of median pixel density, as shown in FIG. 1.

In assay [11] the test system is pIR. Put plainly: RTK array analysis, GEO model. Type of assay: in vivo, human. The settings on record: erlotinib 100 mg/kg per day for eighteen days, all treated tumors, FIG. 1. The method, then:
as §4

Setting [12] is: OSI-906 50 mg/kg per day after taking off erlotinib.
[13] abbreviates: tumors that do not progress on treatment.
[14] abbreviates: tumors that respond and then progress on treatment.

The structures appear in SMILES notation.

For the molecule `C[C@]1(O)C[C@@H](c2nc(-c3ccc4ccc(-c5ccccc5)nc4c3)c3c(N)nccn32)C1` [OSI-906, cis-3-[8-amino-1-(2-phenyl-quinolin-7-yl)-imidazo[1,5-a]pyrazin-3-yl]-1-methyl-cyclobutanol], in assay [1] (setting [12]), the “time to tumor doubling, switching to OSI-906 single agent versus maintaining erlotinib single agent” value is listed as “no statistical difference” and the “time to two tumor doublings, switching to OSI-906 single agent versus maintaining erlotinib single agent” value is “no statistical difference”.

As for `C#Cc1cccc(Nc2ncnc3cc(OCCOC)c(OCCOC)cc23)c1` [erlotinib, [6,7-bis(2-methoxyethoxy)-4-quinazolin-4-yl]-(3-ethynylphenyl)amine], the “phospho to total Erk versus vehicle control” value is “continued inhibition” in [2] (setting [13]), “no longer inhibiting” in assay [2] (setting [14]), “continued inhibition” in [6] (setting [13]) and “no longer inhibiting” in assay [6] (setting [14]). In addition, the “phospho to total Akt versus vehicle control” value in assay [3] (setting [13]) is on record as “continued inhibition”; in assay [3] (setting [14]), “no longer inhibiting”; in [7] (setting [13]), “continued inhibition”; in assay [7] (setting [14]), “no longer inhibiting”. Also, the “level of pIGF-1R (pixel density normalized to phosphotyrosine loading control)” value in assay [4] is “upregulation”. Moreover, the “level of pIR (pixel density normalized to phosphotyrosine loading control)” value in assay [5] is reported as “upregulation”. For the same molecule, the “median time to tumor doubling following the re-sorting” value in assay [8] is listed as “about 28 days”. Further, in assay [9], the “mice that doubled their tumor volumes twice” value is listed as 7 of 8. For the same molecule, the “median time to one doubling” value was determined as 20.9 days in assay [1] (first trial, FIG. 10, Kaplan-Meier, after 28 days erlotinib 100 mg/kg per day, combination = erlotinib + OSI-906 15 or 10 mg/kg) and 20.9 days in assay [1] (second trial, FIG. 14, Kaplan-Meier). Further, the “median time to two doublings” value in assay [1] (first trial, FIG. 11, Kaplan-Meier, combination = erlotinib + OSI-906 15 or 10 mg/kg) amounted to 41.5 days; in assay [1] (second trial, FIG. 15, Kaplan-Meier), 45.8 days. For the same molecule, the “level of pIGF-1R (median pixel density) compared to untreated tumors” value in assay [10] was “upregulation”. The “level of pIR (median pixel density) compared to untreated tumors” value in assay [11] was “upregulation”.
